Legend:
[1] = tested on: GSH, MDA, GSH-Px and SOD in colonic tissues; assay: TNBS-induced colitis: levels of GSH, MDA, GSH-Px and SOD in colonic tissues; type: in vivo, mice; conditions: P<0.01
Protocol: (§1) Colitis induction was performed based on the previous study ([20]). After a 12 hr of fast, mice were anesthetized with pentobarbital sodium (40 mg/kg of body weight). TNBS solution (0.1 ml dissolved in 50% ethanol, 2.5%) was injected into the colon of mice (3.5-4 cm from the anus), and then mice were kept head downward for 30 sec to prevent drug leakage. Twenty-four hr after the injection of TNBS, mice were administrated once daily for five continuous days with different drugs. Briefly, mice in treatment groups were administrated with a given dose of drugs by gavage (0.1 ml, equivalent to 100 mg/kg of 5-ASA) ([21]). Besides, mice in the control group and the positive group received a same volume of normal saline, and a physical mixture of 5-ASA and alanine, respectively. Forty-eight mice were randomly divided into four groups (n=12): 1) control (intragastric-gavage (ig), normal saline, no colitis induced), 2) TNBS (ig, normal saline), 3) positive (ig, 100 mg/kg 5-ASA+56 mg/kg alanine, dissolved in normal saline), 4) 5-ASA-ALA (ig, 156 mg/kg, dissolved in normal saline).
Clean and dried colonic tissues were homogenized in ice-cold normal saline, the resulting homogenate (10%, w/v) was centrifuged at 4 °C, 13000 g for 15 min. The obtained supernatant was diluted with normal saline to 1% (w/v), and the protein levels in the supernatant were measured by a BCA protein assay kit. The levels of GSH and MDA, and the activity of GSH-Px and SOD in the colonic tissues were measured by assay kits according to the provider’s instructions.

[2] = Transport study across Caco-2 monolayers (Papp); type: in vitro ADME, human; conditions: human, Caco-2
Protocol: (§2) Caco-2 cells were grown in DEME medium containing 10% FBS, 100 unit/ml peniciline, 100 µg/ml streptomycine, 2 mM glutamine, 1% sodium pyruvate and 1% non-essential amino acids at 37 °C in a humidified atmosphere of 95% air and 5% CO2. Cells were seeded on polycarbonate membranes (Transwell, diameter 24 mm, pore size 0.4 μm, Corning Costar, NY, USA) at 1×10^5 cells/well in a 6-well plate ([16]). Propranolol was used as a positive control.
(§3) Eight days later, Caco-2 cells reached 100% confluence and then were cultured for 18 days more. The culture medium was discarded, and then the apical (AP) and basal (BL) chambers were washed for 3 times with PBS. The culture medium was then replaced with 1 ml of propranolol or 5-ASA-ALA solution ([…]) in the AP chamber. In the BL chamber, 2 ml of PBS was added instead of the culture medium. The plate was incubated at 37 °C in an atmosphere of 95% air and 5% CO2 ([17]). After 0, 2, 4, 6, and 8 hr of incubation, the concentration of propranolol and 5-ASA-ALA in the BL chamber was measured by HPLC method, and the apparent permeability coefficient (Papp) of drugs was calculated as follows: […]
(§4) where dQ/dt (μmol/s) is the transport rate, C0 (μmol/cm^3) is the initial concentration in the donor chamber, and A (cm^2) is the surface area of insert filter membrane. Experiments were performed in triplicate.

Caco-2 cells [3] = assay: Transport study across Caco-2 monolayers (Papp); type: in vitro ADME, human; conditions: compared with propranolol
Protocol: as §2, §3, §4

[4] = Stability study of 5-ASA-ALA in rat plasma and stomach, small intestine and colon contents (room temperature storage, freezing-thawing); type: in vitro ADME; conditions: all tissue samples at 0.4, 1.6 and 6.4 μg/ml, both storage conditions
Protocol: This study was tested at three concentration levels of 5-ASA-ALA to evaluate its in vitro stability in tissue samples and validate the HPLC method for 5-ASA-ALA analysis under different conditions. Briefly, five rats were anesthetized and sacrificed, and their abdomen was cut open through the middle. Their stomach contents, small intestine contents and colon contents were collected and mixed with hydrochloric acid buffer (pH=1.2) and phosphate buffered saline (PBS) (pH=6.8 and 7.4), respectively, and homogenized to 20% (w/v). Then 1.0 ml of 5-ASA-ALA solution (dissolved in corresponding buffers) was mixed with the same volume of rat plasma, freshly prepared stomach contents, small intestine contents and colon contents, respectively, with the final concentration of 0.4, 1.6 and 6.4 μg/ml. Samples were divided into two groups, stored at room temperature for 10 hr or went through the freezing-thawing cycles twice. At the end of the storage and the freezing-thawing cycle, samples were centrifuged at 13000 g for 10 min and mixed with methanol (0.4 ml), then the mixture was vortexed and centrifuged again. Finally, the supernatant was collected, concentrated with nitrogen, and dissolved in methanol for HPLC analysis ([15]). Each concentration level was tested five times and the RSD was calculated respectively.

colonic microflora = assay: In vivo incubation in the colon of rats (with or without clindamycin pretreatment); conditions: incubation in rat colon for 8 hr
Protocol: Rats were randomly divided into two groups (n=6), the clindamycin group and the control group. Clindamycin was used as an inhibitor of the colonic microflora. Rats were administered with a certain dose of clindamycin (25 mg/kg of body weight) and an equivalent volume of normal saline by gavage, twice daily for three days, respectively. After that, rats were anesthetized by diethyl ether, their abdomen was cut open, and then 5-ASA-ALA solution (2 mg, dissolved in 1 ml of PBS, pH=7.4) was injected into their colon, finally, their colon was tied at both ends and their abdomen was sutured immediately ([18], [19]). Eight hr later, animals were sacrificed, the colon contents of rats were collected and homogenized in PBS (pH=7.4, 40 ml). The homogenate was then centrifuged, and the supernatant was obtained and mixed with four times the volume of methanol, finally, samples were centrifuged, filtered and analyzed by HPLC. The percent of hydrolysis of 5-ASA-ALA was calculated as follows: percent of hydrolysis %=(1-Wf/Wt)×100 where Wf is the free amount of 5-ASA in the colon contents and Wi is the initial amount of 5-ASA-ALA that administered to rats.

TNBS-induced colitis [5] = assay: TNBS-induced colitis: disease activity index (DAI); type: in vivo, mice; conditions: compared with the positive control
Protocol: as §1
The disease activity index (DAI) of mice was scored and recorded daily from day 1 according to the scoring criteria (Table 1). […] The degree of fecal occult blood was evaluated by the ο-tolidine method ([22]), and scored based on the criteria reported by Kohn and kelly ([23]).

[6] = Pharmacokinetic study in rats after oral administration; type: in vivo, rat
Protocol: Twelve male Sprague-Dawley rats were randomly divided in two groups (n=6), the 5-ASA-ALA group and 5-ASA group. Rats were orally administered with a certain amount of 5-ASA-ALA (equivalent to 50 mg/kg of 5-ASA) and 5-ASA. At 0.25, 0.5, 1, 2, 4, 6 and 8 hr, blood samples were collected from the jugular vein and then centrifuged at 13000 g, 4 °C for 5 min to separate plasma. The plasma sample (0.1 ml) was mixed with methanol (0.4 ml), vortexed for 5 min and then centrifuged again. Finally, the supernatant was obtained, dried under nitrogen, dissolved in methanol and used for HPLC detection.

TNBS-induced colitis [7] = assay: TNBS-induced colitis: survival rate and body weight of mice; type: in vivo; conditions: ig equivalent to 100 mg/kg of 5-ASA, once daily 5 days
Protocol: as §1
From day 0 of colitis induction, the body weight of each mouse and the death of each group were recorded daily. Finally, the degree of TNBS-induced colitis in mice of each group was evaluated based on the curves of weight changes and the final survival rate of mice for each group.

[8] = tested on: MPO activity in colonic tissues; assay: TNBS-induced colitis: MPO activity in colonic tissues; type: in vivo, mice; conditions: P<0.01
Protocol: as §1
Colonic tissue samples were cleaned, dried and then suspended in HTAB solution (0.5%, pH=7.4), the final concentration of the tissue samples was 50 g/l. […] Finally, MPO activity in colonic tissues was detected by an assay kit according to the provider’s instructions.

[9] = In vitro incubation with colon contents of rats; type: in vitro ADME, rat
Protocol: Four g of colon contents of rats (n=6) were collected and mixed with 5-ASA-ALA solution (0.1 g/ml) in PBS (pH=7.4, 40 ml), the mixture was incubated under nitrogen atmosphere at 37 °C. At the time point of 0, 1, 2, 3, 4, 5, 6, 7, 8, 9 and 10 hr, the mixture (0.5 ml) was sampled and replaced with an equivalent volume of PBS. Samples were then centrifuged and filtered, the concentration of 5-ASA was detected by HPLC method. The experiment was conducted at seven concentration levels of 5-ASA-ALA (27.5, 50.0, 72.5, 105.0, 150.0, 200.0 and 305.0 μg/ml). The hydrolysis curve of each concentration was drawn, the linear regression was made to obtain regression equations, and the slope of each curve was regarded as the hydrolysis rate of 5-ASA-ALA.

TNBS-induced colitis [10] = assay: TNBS-induced colitis: colonic damage score (CDS) and colon index; type: in vivo, mice; conditions: vs positive control, P<0.05
Protocol: Colitis induction was performed based on the previous study ([20]). After a 12 hr of fast, mice were anesthetized with pentobarbital sodium (40 mg/kg of body weight). TNBS solution (0.1 ml dissolved in 50% ethanol, 2.5%) was injected into the colon of mice (3.5-4 cm from the anus), and then mice were kept head downward for 30 sec to prevent drug leakage. Twenty-four hr after the injection of TNBS, mice were administrated once daily for five continuous days with different drugs. Briefly, mice in treatment groups were administrated with a given dose of drugs by gavage (0.1 ml, equivalent to 100 mg/kg of 5-ASA) ([21]). […]
All mice were sacrificed on the 5th day of the experiment, their colonic tissues were excised, cut longitudinally, washed carefully with normal saline, and observed with a magnifying glass. The colonic damage score (CDS) was evaluated according to following scoring criteria: 0, no ulcer and colitis; 1, local hyperemia without ulcer; 2, ulcers without local hyperemia; 3, only one ulcerative and inflammatory lesion; 4, more than one ulcerative and inflammatory lesions; 5, more than 2 cm of continuous ulcer areas ([24]).
The entire colon samples were dried with filter papers, the length and weight of the samples were measured and recorded, respectively, in order to calculate the colon index of mice as the following formula: […]

Caco-2 cells [11] = conditions: Caco-2 cell monolayer, known value that justifies the positive control; no reference given; cited from earlier work
[12] = vs TNBS group, five days of treatment

In the case of `CC(NC(=O)c1cc(N)ccc1O)C(=O)O` (centres unmarked) [5-ASA-ALA, 5-Aminosalicylic acid-alanine], the “GSH level in colonic tissues” value [1, 12] is reported as “significantly higher”, the “GSH-Px activity in colonic tissues” value [1, 12] is reported as “higher activities” and the “MDA level in colonic tissues” value [1, 12] is reported as “significantly lower”. For the same molecule, the “SOD activity in colonic tissues” value [1, 12] was “higher activities”, the “reducing the MDA level in the colon” value ([1]; vs positive control) was “significantly greater effect” and the Papp at 8 hr, 200 μmol/l ([2]; apical to basal direction, at 200 μmol/l) was 2.63 ×10⁻⁶ cm/s. For the same molecule, the Papp at 8 hr, 400 μmol/l ([2]; apical to basal direction, at 400 μmol/l) was 1.73 ×10⁻⁶ cm/s, the “absorption in the Caco-2 monolayer” value (Caco-2 cells [3]) was “significantly less than the propranolol” and the “RSDs in all tissue samples” value [4] was less than 4%. The percent of hydrolysis (colonic microflora; clindamycin group (25 mg/kg twice daily, three days), P<0.01) was 5.26%, the percent of hydrolysis (colonic microflora; control group (normal saline)) was 89.14% and the DAI (TNBS-induced colitis [5]) was “more effective than the positive control”. The plasma concentration ([6]; oral, equivalent to 50 mg/kg of 5-ASA, 0-8 hr) was “not detected”, the body weight (TNBS-induced colitis [7]; alleviated from the third day) was “slight weight loss in the first two days” and the survival rate (TNBS-induced colitis [7]; positive control vs 5-ASA-ALA group, n=12) was “no significant difference”. The “MPO activity in colonic tissues” value ([8]; vs TNBS group) was “significantly reduced”, the “MPO activity in colonic tissues” value ([8]; vs positive control) was “obviously more effective than the positive control” and the “concentration of 5-ASA-ALA above which the hydrolysis rate did not increase anymore (zero-order)” value ([9]; colon contents of rats, Figure 3) was “above 200 µg/ml”. The “5-ASA released from 5-ASA-ALA” value ([9]; colon contents, PBS pH 7.4, nitrogen, 37 °C, 0-10 hr) was “gradually released” and the CDS (TNBS-induced colitis [10]) was “significantly greater effect than the positive control”.
`Nc1ccc(O)c(C(=O)O)c1` [5-ASA, 5-Aminosalicylic acid] showed a Tmax ([6]; male, Sprague-Dawley, rat, oral administration, 50 mg/kg of 5-ASA, plasma) of 30 min.
For `CC(C)NCC(O)COc1cccc2ccccc12` (centres unmarked) [Propranolol, reference compound], the Papp at 8 hr, 100 μmol/l ([2]; detected in this study, at 100 μmol/l) is given as 24.8 ×10⁻⁶ cm/s and the Papp (Caco-2 cells [11]) is given as 27.5 ×10⁻⁶ cm/s.

Source: publication PMC7043877, “Synthesis and evaluation of a prodrug of 5-aminosalicylic acid for the treatment of ulcerative colitis” (Iranian Journal of Basic Medical Sciences, 2019)
